In series [1] the test system is osteoclast like cells from bone marrow cells of mice of C 57 BL/6 strain. In words: Formation of osteoclast like cells from bone marrow cells of mice of C 57 BL/6 strain. To be noted: Example 2, C 57 BL/6 strain bone marrow cells. Format: cell-based, mouse. On the procedure: The number of viable bone marrow cells was counted using tripam blue dye exclusion test and the bone marrow cells were diluted with α-MEM containing 10% JCS, 10^−8M Vit D3, 10^−7 M dexamethasone to a population density of 1.5×10^6 cells/ml, followed by placing the resulting suspension in each well in 24-well plates in an amount of 0.45 ml/well. To each well, 50 μl of the medium containing varying concentration of IFN was added to make the volume to 0.5 ml/well and culturing was begun. At every three days, 0.4 ml of the culture medium was removed from each well and 0.4 ml of fresh medium (the above-mentioned medium containing the respective concentration of IFN) was added. On Day 8 from the beginning of the culturing, the medium was removed and the cells were fixed with mixed solution of ethyl alcohol and diethyl ether (1:1) and the cells were stained with tartrate resistant acid phosphatase (TRAP), followed by counting TRAP positive multinuclear cells with a phase contrast microscope. […] The inhibition effect of IFNγ was stronger than that of IFNβ. That is, the inhibition concentration IC50 of IFNγ was not more than 0.1 units/ml, and that of IFNβ was 0.2 units/ml.
In place of mice of ddy strain, male mice of C 57 BL/6 of 7 weeks old were used. The mice were exanguinated to death under ether anesthesia and the femur and the tibia of hind legs were collected from each mouse. The connective tissues on the surfaces of the bones were carefully removed, and both ends of each bone were cut off with scissors. The bone marrow cells were suspended in α-MEM containing 10% JCS and the suspension was flushed out through a 25 G needle attached to a syringe to collect the suspension in a centrifugal tube. The collected suspension was washed by centrifugation in the same medium at 2000 rpm at 4° C. for 5 minutes. The precipitated cells were dispersed in the above-mentioned medium and the washing by centrifugation was repeated twice. Formation of osteoclast like cells was measured by the same method as in Example 1.

The test system of series [2] is MC3T3-E1 cells. Briefly: Mineralization of murine osteoblasts, Von Kossa stain (in vitro single administration). In kind it is cell-based, mouse. To be noted: Day 14. On the procedure:
As the parameters for evaluation of differentiation ability, alkaline phosphatase (ALPase) and mineralization were employed. Detection of alkaline phosphatase which is a marker of differentiation of osteoblasts was carried out on Day 8 from the beginning of the culturing by staining method. Evaluation of mineralization was carried out as follows. That is, MC3T3-E1 cells were placed in each well of 24-well plates in an amount of 50,000 cells/ml (10 times in the case of anti-cell test in Example 3). On Day 4, after confirming that the cells sufficiently reached confluency, the medium was discarded and fresh α-MEM containing 10% JCS, 50 μg/ml of L-ascorbic acid and 10 mM β-glycerophosphate was added in an amount of 0.9 ml/well, followed by adding medium containing varying concentration of IFN. Four days later, the medium was replaced with IFN-free medium, and the medium was replaced with IFN-free medium every 4 days. On Day 14, Von Kossa stain was performed to visualize the calcified foci. Expression of alkaline phosphatase activity which is a differentiation marker is an indispensable step to the subsequent mineralization.

Series [3] deals with MC3T3-E1 cells. In words: Mineralization of murine osteoblasts, Von Kossa stain (in vitro multiple administration). Format: cell-based, mouse. As to conditions: MC3T3-E1, twice administration, Von Kossa on Day 9. On the procedure: MC3T3-E1 cells were placed in each well in 24-well plates in an amount of 30,000 cells/well and cultured to confluency. The medium was removed and fresh α-MEM containing 10% JCS, 50 μg/ml of L-ascorbic acid and 10 mM β-glycerophosphate was added in an amount of 0.9 ml/well, followed by adding 0.1 ml/well of medium containing varying concentration of IFN. The medium was replaced with the medium containing the respective concentration of IFN every 4 days. On Day 9 from the first treatment with IFN, Von Kossa stain was performed to visualize the calcified foci.

Series [4] is described as follows: Osteoporosis model mice: change in body weight. In kind it is in vivo, mouse. To be noted: administration continuously for 4 weeks at a dose exhibiting the therapeutic effect. The method, then: Female mice of ddy strain of 8 weeks old were divided into 5 groups and experiment was carried out. Bilateral ovariectomy was performed on the mice in 3 groups and sham operation alone was performed on the mice in 2 groups. Thereafter, the mice were raised with normal diet for 1 month, thereby making the state of osteoporosis in the ovariectomized groups. In this model, it is known that the mice become the state of osteoporosis 2 to 3 weeks after the ovariectomy (T. Hosaka et al., ANITEX, Vol. 5, 243, 1992; Miyaura, C. et al., J. Bone Mineral Res., 10, 1365, 1995). From the third weeks from the ovariectomy, murine IFN was subcutaneously administered (100 μl/head/time) once per day, totally 25 times. On Day 30 from the beginning of administration, under ether anesthesia, body weight was measured, blood was collected, and femur was collected and dry bone weight thereof was measured for each mouse.
It is well-known that the increase and decrease in the amount of urinary D-Pyr excreted in urine, which is a crosslinked substance of bone collagen, is an excellent marker reflecting the degree of degradation of bone collagen, that is, the degree of bone resorption (C. P. Jerome et al., Bone and Mineral, 19, 117-125, 1992). For measurement of urinary D-Pyr, a commercially available kit (PYRILINKS-D Assay, METRA BIOSYSTEMS) was used. […]

From patent US20050180954A1, “Drug for treating bone disorders” (priority 1995, published 2005) come the findings set out here.

Turning to “MuIFNβ: murine interferon β, Lot M-0034, prepared by Toray Industries, Inc. by genetic engineering technique”, in series [1], the “inhibition of formation of osteoclast like cells” value was “strongly inhibited formation of osteoclast like cells”. Besides, in series [1] (Day 8), the “IC50 of formation inhibition of osteoclast like cells” value was 0.1 units/ml. Besides, the “influence on mineralization (calcified foci, Von Kossa stain)” value with MC3T3-E1 cells [2] is given as “mineralization proceeded without substantial influence”. The “number of calcified foci and intensity of staining” value in the series with MC3T3-E1 cells [3] is on record as “dose dependently increased”. Moreover, in series [4], the “change in body weight” value is listed as “no problematic change in body weight was observed in any group”.
